Source: patent US8211861B2, “Compositions for and methods of enhancing the immune response to antigens” (Wittycell, priority 2007, dated 2012)

B1: ovalbumin (protein, UniProt P01012 2-386, looked up)
Ovalbumin: GSIGAASMEFCFDVFKELKVHHANENIFYCPIAIMSALAMVYLGAKDSTRTQINKVVRFDKLPGFGDSIEAQCGTSVNVHSSLRDILNQITKPNDVYSFSLASRLYAEERYPILPEYLQCVKELYRGGLEPINFQTAADQARELINSWVESQTNGIIRNVLQPSSVDSQTAMVLVNAIVFKGLWEKAFKDEDTQAMPFRVTEQESKPVQMMYQIGLFRVASMASEKMKILELPFASGTMSMLVLLPDEVSGLEQLESIINFEKLTEWTSSNVMEERKIKVYLPRMKMEEKYNLTSVLMAMGITDVFSSSANLSGISSAESLKISQAVHAAHAEINEAGREVVGSAEAGVDAASVSEEFRADHPFLFCIKHIATNAVLFFGRCVSP
notes: nominal antigen, Ovalbumin grade VII, Sigma

How the values were obtained:
[1] = test system: CD8+ T cells responsive to OVA; experiment: SIINFEKL pentamer assay, percentage of OVA-specific CD8+ T cells; type: in vivo, mouse; conditions: IM, days 0 and 14, blood day 21
Protocol: To verify the results obtained using the in vivo cytotoxicity assay described in the Examples above, similar experiments were performed and CD8+ T cell activation was determined by measuring the percentage of OVA-specific CD8+ T cells using a pentamer assay. Briefly, mice were injected intramuscularly with the indicated amounts of OVA and test adjuvant compound at either 1 μg or 100 ng per mouse, respectively on day 0 as follows:
Experiment A: • Group 1: 100 μl of PBS; • Group 2: 50 μg of Ova into 100 μl PBS; • Group 3: 50 μg of Ova with 1 μg αGalCer; • Group 4: 50 μg of Ova with 1 μg PBS-11 • Group 5: 50 μg of Ova with 1 μg PBS-14 • Group 6: 50 μg of Ova with […] PBS-57 • Group 7: 50 μg of Ova with 1 μg PBS-96
Experiment B: • Group 1: 100 μl of PBS; • Group 2: 50 μg of Ova into 100 μl PBS; • Group 3: 50 μg of Ova with 100 ng αGalCer; • Group 4: 50 μg of Ova with 100 ng PBS-11 • Group 5: 50 μg of Ova with 100 ng PBS-14 • Group 6: 50 μg of Ova with 100 ng PBS-57 • Group 7: […] of Ova with 100 ng PBS-96 A second injection was administered to the mice on day 14 and blood was collected from the mice on day 21. The lymphocytes were collected and analyzed by FACS analysis using H-2K^b SIINFEKL pentamer and CD8 antibody to detect CD8+ T cells responsive to OVA.

[2] = test system: Ova-specific target cells; experiment: in vivo specific cytotoxic T cell (CD8+) response, specific lysis of Ova-specific target cells; design: species or system mouse; conditions: for specific lysis of Ova-specific target cells in blood: Example 1, FIG. 1, 1 μg adjuvant with 50 μg Ova, day 0, target cells day 10, read day 11; for specific lysis of Ova-specific target cells in blood / average Ova-specific cytotoxic response (percent specific lysis): IV; for percentage of specific lysis of the target cells by CD8+ T cells: Example 5 Experiment B, FIG. 8, 50 μg OVA with 10 ng adjuvant; for percentage of specific lysis of the target cells by CD8+ T cells / average OVA-specific cytotoxic response (percent specific lysis) / enhancement of the CD8+ T cell response at low doses (specific lysis): IM; for percentage of specific lysis of the target cells by CD8+ T cells / average Ova-specific cytotoxic response (percent specific lysis) / average OVA-specific cytotoxic response (percent specific lysis): blood day 11; for average Ova-specific cytotoxic response (percent specific lysis): Example 2, FIG. 2; for average Ova-specific cytotoxic response (percent specific lysis) / average OVA-specific cytotoxic response (percent specific lysis): 400 μg Ova with or without 1 μg adjuvant; for average OVA-specific cytotoxic response (percent specific lysis): Example 2, FIG. 3; for enhancement of the CD8+ T cell response at low doses (specific lysis): Example 5, FIGS. 7 and 8, 50 μg OVA with 100 ng or 10 ng adjuvant
OVA-specific IgG2a = OVA-specific IgG2a ELISA after intramuscular immunization; type: in vivo, mouse; conditions: FIG. 12; IM, 50 μg OVA with 100 ng adjuvant, 14 days post-injection
Protocol: Mice (6 per group) were injected intramuscularly with 50 μg of OVA either alone or in combination with 100 ng of the indicated adjuvants (Freund's adjuvant was used as a positive control) as follows: • Group 1: […] of Ova with CFA/IFA (Positive control) • Group 2: 50 μg of Ova • Group 3: 50 μg of Ova and 100 ng of αGalCer • Group 4: 50 μg of Ova and 100 ng of PBS-11 • Group 5: 50 μg of Ova and 100 ng of PBS-14 • Group 6: 50 μg of Ova and 100 ng of PBS-57 • Group 7: 50 μg of Ova and 100 ng of PBS-96 At 14 days post-injection, blood samples were collected and ELISAs for IgG1 and IgG2a were performed using mouse monoclonal antibodies specific for OVA isotype IgG1 or IgG2a. The results are shown as the titer of the antibody in peripheral blood in ng/ml. The results for IgG1 are depicted in FIG. 11 and those for IgG2a are depicted in FIG. 12.

[3] = Example 6 Experiment A, FIG. 9, 50 μg Ova with 1 μg adjuvant
[4] = Example 6 Experiment B, FIG. 10, 50 μg Ova with 100 ng adjuvant

Molecule | percentage of OVA specific CD8+ T cells (SIINFEKL pentamer) [1, 3] | specific lysis of Ova-specific target cells in blood [2] | percentage of specific lysis of the target cells by CD8+ T cells [2] | percentage of OVA specific CD8+ T cells (SIINFEKL pentamer) [1, 4] | average Ova-specific cytotoxic response (percent specific lysis) [2] | average OVA-specific cytotoxic response (percent specific lysis) [2] | enhancement of the CD8+ T cell response at low doses (specific lysis) [2] | OVA specific IgG2a titer in peripheral blood (OVA-specific IgG2a)
CCCCCCCCCCCCCCCCCCCCCCCCCC(=O)N[C@@H](CO[C@H]1O[C@H](CNC(=O)CCCC[C@@H]2SC[C@@H]3NC(=O)N[C@@H]32)[C@H](O)[C@H](O)[C@H]1O)[C@H](O)[C@H](O)CCCCCCCCCCCCCC [PBS-11, reference compound] | not as effective | did not result in specific lysis of cells | indistinguishable from the controls | – | – | – | – | –
CCCCCCCCCCCCCCCCCCCCCCCCCC(=O)N[C@@H](CO[C@H]1O[C@H](CNC(C)=O)[C@H](O)[C@H](O)[C@H]1O)[C@H](O)[C@H](O)CCCCCCCCCCCCCC [PBS-14] | enhanced the percentage of OVA specific CD8+ T cells | resulted in cytotoxic lysis of Ova-specific target cells | – | surprisingly much better at enhancing the CD8+ T cell response | 83.3±6.1% | 52.07±29.56% | unexpectedly better than other adjuvants | enhanced the OVA specific IgG2a titer about as well as Freund's adjuvant and much better than PBS-57
CCCCCCCC/C=C\CCCCCCCCCCCCCC(=O)N[C@@H](CO[C@H]1O[C@H](CNC(C)=O)[C@H](O)[C@H](O)[C@H]1O)[C@H](O)[C@H](O)CCCCCCCCCCCCCC [PBS-57, reference compound] | enhanced the percentage of OVA specific CD8+ T cells | – | indistinguishable from the controls | – | 88.1±6.2% | 56.11±13.34% | – | –
CCCCCCCCCCCCCCCCCCCCCCCC(=O)N[C@@H](CO[C@H]1O[C@H](CNC(C)=O)[C@H](O)[C@H](O)[C@H]1O)[C@H](O)[C@H](O)CCCCCCCCCCCCCC [PBS-96] | enhanced the percentage of OVA specific CD8+ T cells | resulted in cytotoxic lysis of Ova-specific target cells | – | surprisingly much better at enhancing the CD8+ T cell response | 89.2±10.3% | 50.29±42.6% | unexpectedly better than other adjuvants | enhanced the OVA specific IgG2a titer about as well as Freund's adjuvant and much better than PBS-57
CCCCCCCCCCCCCCCCCCCCCCCCCC(=O)N[C@@H](CO[C@H]1O[C@H](CO)[C@H](O)[C@H](O)[C@H]1O)[C@H](O)[C@H](O)CCCCCCCCCCCCCC [αGalCer, α-galactosyceramide, reference compound] | not as effective | – | indistinguishable from the controls | – | – | – | – | –
B1 | – | – | – | – | 11.8±14.4% | 1.60±14.33% | – | –
